What is called IC50 is the concentration that gives 50% inhibition. High values mean lower potency, low ones higher potency.

Among the data in ChEMBL document CHEMBL4177545, “Potential Antiosteoporotic Natural Product Lead Compounds That Inhibit 17β-Hydroxysteroid Dehydrogenase Type 2” (J Nat Prod, 2017) are IC50 and Selectivity Index values, retold here.

The target of assay [1] is T1, 17-beta-hydroxysteroid dehydrogenase type 1 (Homo sapiens, UniProt P14061).
T1 sequence (P14061 whole entry): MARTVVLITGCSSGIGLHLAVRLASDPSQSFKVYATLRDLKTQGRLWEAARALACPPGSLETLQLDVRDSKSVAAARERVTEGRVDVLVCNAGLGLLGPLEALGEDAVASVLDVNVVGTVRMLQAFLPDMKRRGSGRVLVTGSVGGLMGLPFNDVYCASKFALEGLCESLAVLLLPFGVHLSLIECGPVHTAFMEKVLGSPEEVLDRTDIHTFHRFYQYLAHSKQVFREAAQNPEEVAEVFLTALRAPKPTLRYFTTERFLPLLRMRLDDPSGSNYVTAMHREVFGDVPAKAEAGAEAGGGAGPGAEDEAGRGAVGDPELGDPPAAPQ
The experiment in a line: Inhibition of human 17beta-HSD1 expressed in HEK293 cell lysates incubated for 10 mins using [2,4,6,7-3H]-estrone and NADPH by scintillation counting method.

The species named for assay [2] is Homo sapiens. Briefly: Selectivity index, ratio of inhibition of human 17beta-HSD1 expressed in HEK293 cell lysates to inhibition of human 17beta-HSD2 expressed in HEK293 cell lysates.
Assay [3] has as its target T2, Aromatase (Homo sapiens, UniProt P11511).
T2 sequence (P11511 whole entry): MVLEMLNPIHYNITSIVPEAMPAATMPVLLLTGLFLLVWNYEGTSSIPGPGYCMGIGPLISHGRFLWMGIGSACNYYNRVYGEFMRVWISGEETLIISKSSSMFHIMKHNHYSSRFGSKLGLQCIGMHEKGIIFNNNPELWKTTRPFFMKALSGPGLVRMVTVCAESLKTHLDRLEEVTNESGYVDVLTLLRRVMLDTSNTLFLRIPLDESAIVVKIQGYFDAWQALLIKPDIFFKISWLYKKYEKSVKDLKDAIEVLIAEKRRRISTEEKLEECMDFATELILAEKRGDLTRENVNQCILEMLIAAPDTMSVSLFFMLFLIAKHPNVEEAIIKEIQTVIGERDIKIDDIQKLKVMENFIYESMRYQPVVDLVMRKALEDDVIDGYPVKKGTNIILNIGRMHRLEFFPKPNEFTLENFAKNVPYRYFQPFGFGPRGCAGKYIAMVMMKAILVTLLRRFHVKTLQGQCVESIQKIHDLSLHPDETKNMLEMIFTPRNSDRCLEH
The experiment in a line: Inhibition of aromatase (unknown origin).

The target in assay [4] is T3, Estrogen receptor (Homo sapiens, UniProt P03372).
T3 sequence (P03372 whole entry): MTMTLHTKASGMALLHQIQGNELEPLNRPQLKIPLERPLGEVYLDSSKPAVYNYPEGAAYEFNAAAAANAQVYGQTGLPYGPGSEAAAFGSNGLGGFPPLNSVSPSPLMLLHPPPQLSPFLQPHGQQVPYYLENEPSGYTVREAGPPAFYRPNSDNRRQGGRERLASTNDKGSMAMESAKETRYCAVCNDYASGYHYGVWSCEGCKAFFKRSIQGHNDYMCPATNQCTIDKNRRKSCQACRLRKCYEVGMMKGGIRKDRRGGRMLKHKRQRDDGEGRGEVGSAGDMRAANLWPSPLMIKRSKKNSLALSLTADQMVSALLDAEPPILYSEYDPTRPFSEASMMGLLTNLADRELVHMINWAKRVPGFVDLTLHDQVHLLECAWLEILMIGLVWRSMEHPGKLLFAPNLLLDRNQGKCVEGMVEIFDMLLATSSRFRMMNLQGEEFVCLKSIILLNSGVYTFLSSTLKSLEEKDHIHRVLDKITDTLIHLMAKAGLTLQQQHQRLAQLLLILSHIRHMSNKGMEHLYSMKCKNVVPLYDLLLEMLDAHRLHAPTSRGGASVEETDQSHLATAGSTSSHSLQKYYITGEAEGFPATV
Briefly: Displacement of estradiol from human ERalpha expressed in yeast cells. It is filed as cell-based.

In assay [5] the target is Estrogen receptor beta (Homo sapiens, UniProt Q92731). Briefly: Displacement of estradiol from human ERbetaa expressed in yeast cells. The format is cell-based.
Sequence of Estrogen receptor beta (Q92731 whole entry): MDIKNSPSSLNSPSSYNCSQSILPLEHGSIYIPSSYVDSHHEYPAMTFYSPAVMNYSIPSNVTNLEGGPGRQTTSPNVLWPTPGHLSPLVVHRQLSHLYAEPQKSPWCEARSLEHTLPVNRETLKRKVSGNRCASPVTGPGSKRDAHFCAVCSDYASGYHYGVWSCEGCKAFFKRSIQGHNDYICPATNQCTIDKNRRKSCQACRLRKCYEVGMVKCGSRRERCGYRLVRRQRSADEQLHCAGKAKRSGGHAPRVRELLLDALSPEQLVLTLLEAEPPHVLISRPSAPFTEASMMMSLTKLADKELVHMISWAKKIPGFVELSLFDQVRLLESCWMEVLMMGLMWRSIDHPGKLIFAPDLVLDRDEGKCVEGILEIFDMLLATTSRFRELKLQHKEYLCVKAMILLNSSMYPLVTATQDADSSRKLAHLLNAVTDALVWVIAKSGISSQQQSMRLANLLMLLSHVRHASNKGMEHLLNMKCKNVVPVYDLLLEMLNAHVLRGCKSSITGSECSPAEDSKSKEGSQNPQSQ

Turning to `O=C(Cc1ccc(O)c(Cl)c1)NCCc1ccccc1`, the IC50 result in assay [1] is “Not Active”.
For the compound `CCOC(=O)c1ccc(O)c(OC)c1`, the IC50 result in assay [1] is “Not Active”.
Still for that read-out and setting: as for `O=C(Cc1ccc(O)c(Cl)c1)NCCc1c[nH]c2ccccc12`, the entry is “Not Active”.
With `O=C(Cc1ccc(O)c(Cl)c1)NCc1ccccc1`, the half-maximal inhibitory concentration (IC50) entry in assay [1] is “Not Active”.
With `COc1cc(/C=C/C(=O)CC(=O)/C=C/c2ccc(O)c(OC)c2)ccc1O`, the Selectivity Index in assay [2] is 12.
For `O=C(/C=C/c1ccc(O)cc1)c1ccc(O)cc1O` [ISOLIQUIRITIGENIN], the values for the IC50 in assay [3], in assay [4] and in assay [5] were 3800 nM, 1870 nM and 269 nM, respectively.
In the case of `O=C(Cc1ccc(O)c(Cl)c1)NCc1ccccc1Cl`, in assay [2], the Selectivity Index is 25.
For the compound `O=C(/C=C/c1ccc(O)c(O)c1)O[C@H](Cc1ccc(O)c(O)c1)C(=O)O` [ROSMARINIC ACID], the 50% inhibitory concentration (IC50) result in assay [1] is “Not Active”.
